Series [1] has as its system Shigella sonnet 51081. The series is described as follows: In vitro antibacterial activity (MIC, agar double dilution). The format is cell-based. The source says:
(§1) tested samples YR-1, YR-2 were the ones prepared in example 1 and example 5 respectively, control samples were cefetamet sodium (CTM), cefuroxime sodium (CRX), cefetamet sodium+sulbactam sodium (CTM+SBT) (molar ratio 1:1), cefuroxime+sulbactam sodium (CRX+SBT) (molar ratio 1:1). All control samples (have been sold on the market) were supplied by Zhejiang Yongning pharmaceutical factory.
(§2) Staphylococcus aureus 26003, Diplococcus lanceolatus 31002, E. coli 44102, Shigella sonnet 51081, Shigella bogdii 51313, Shigella flexneri 51573, Proteus mirabilis 49005, Bacillus proteus 49085, Proteus morganii 49086, Pseudomonas aeruginosa 10124, Bacillus pneumoniae 46101, Salmonella enteritidis 50041, Salmonella typhi 50097, Citrobacter 48017, Candida ciferii 41002 were supplied by Shanghai Hygienic and Antiepidemic Station.
(§3) Mueller-Hinton Agar (M.H) culture medium, batch number 20040528 (Shanghai Reagent Supply Research Center, China Diarrhea Disease Control).
(§4) Adopted agar double dilution, inoculated using multipoint inoculator, inoculated 10^5CFU/ML each point, cultured for 24 hours at 37° C., observed and recorded the results, set the least concentration of the antibacterial drug that can inhibit bacteria growth as the minimum inhibitory concentration (MIC).

Series [2] relates to Proteus mirabilis 49005. The series is described as above. It is filed as cell-based.
Excerpt: as §1, §2, §3, §4

The subject of series [3] is Citrobacter 48017. Described as above. It is filed as cell-based.
Excerpt: as §1, §2, §3, §4

Series [4] concerns Pseudomonas aeruginosa 10124. The description is as above. The format is cell-based.
Excerpt: as §1, §2, §3, §4

Series [5] concerns Candida ciferii 41002. Described as above. It is filed as cell-based.
Excerpt: as §1, §2, §3, §4

Series [6] concerns Salmonella enteritidis 50041. The description is as above. The format is cell-based.
Excerpt: as §1, §2, §3, §4

The test system of series [7] is Bacillus proteus 49085. The series is described as above. The format is cell-based.
Excerpt: as §1, §2, §3, §4

Series [8] relates to Salmonella typhi 50097. Described as above. Particulars: 10^5CFU/ML each point, 24 hours at 37° C. It is filed as cell-based.
Excerpt: as §1, §2, §3, §4

Series [9] relates to Diplococcus lanceolatus 31002. Described as above. The format is cell-based.
Excerpt: as §1, §2, §3, §4

In series [10] the test system is E. coli 44102. Described as above. The format is cell-based.
Excerpt: as §1, §2, §3, §4

The subject of series [11] is Bacillus pneumoniae 46101. Described as above. The format is cell-based.
Excerpt: as §1, §2, §3, §4

Series [12] has as its system Shigella flexneri 51573. The description is as above. The format is cell-based.
Excerpt: as §1, §2, §3, §4

In series [13] the test system is Staphylococcus aureus 26003. The description is as above. The format is cell-based.
Excerpt: as §1, §2, §3, §4

Series [14] relates to Shigella bogdii 51313. Described as above. It is filed as cell-based.
Excerpt: as §1, §2, §3, §4

Series [15] has as its system Proteus morganii 49086. Described as above. The format is cell-based. More on the design: MIC (as restated in the conclusions): unit not given here. Particulars: for antibacterial activities enhanced versus CTM or CRX used solely: YR-1 vs CTM, YR-2 vs CRX.
Excerpt: as §1, §2, §3, §4

Series [16] concerns Bacillus proteus 49085, Proteus morganii 49086. The series is described as follows: Ex vivo antibacterial activity experiment after mouse is administered, conclusions (strains not separated). The format is in vivo. The text has this: the sources of tested samples (YR-1, YR-2) and control samples (CTM, CRX, CTM+SBT 1:1 and CRX+SBT 1:1) are the same as above. Bacillus proteus 49085, Proteus morganii 49086, inoculated 10^5CFU/ML each dish. Mueller-Hinton Agar (M.H) culture medium, batch number 000707 (Shanghai Reagent Supply Research Center, China Diarrhea Disease Control). Strain: Kunming mice; source: Animal Facility of Shanghai Institute of Pharmaceutical Industry; certificate number: Hudonghezhengzi No. 107; animal numbers: 120; Sex: same number of male and female mice; Body weight: 18-21 g; fast time: 16 hours. Group 1: CTM, CRX, CTM+SBT 1:1, CRX+SBT 1:1 were given at a dosage of 500 mg/kg intravenously, collecting blood at 10 minutes, 30 minutes, 1 hour, 2 hours, 4 hours, 8 hours after administration. Group 2: […] Kunming mice were randomly divided into several groups according to body weight of empty stomach and sex. Collecting blood of three mice at different time point, anticoagulated with heparin, centrifugated and separated plasma, quantitative spotting, semi-quantitated antibacterial activity according to the size of bacterial inhibition ring.

Where [17] appears, read: mice, intragastric administration 1000 mg/kg.

Converted amounts (≈) assume the structure as drawn. Like-named read-outs stand apart in the source and are kept apart here.

With “5-thia-1-aza-bicyclo [4,2,0] octane-2-ene-2-carboxylic acid, 7-[[(2-amino-4-thiazolyl) (methoxy imine) acetyl]amino]-3-methyl-8-oxo-, [[3,3-dimethyl-4,4-dioxy-7-oxo-4-thia-1-aza-bicyclo [3,2,0] heptane-2-group]carbonyloxy]oxy]methyl ester [YR-1]”, the “MIC of the drug to bacteria” value was determined as 0.39 µg/mL in series [1] (Shigella sonnet 51081, 10^5CFU/ML each point, 24 hours at 37° C.); 0.098 µg/mL in [2] (Proteus mirabilis 49005, 10^5CFU/ML each point, 24 hours at 37° C.); 1.56 µg/mL in [3] (Citrobacter 48017, 10^5CFU/ML each point, 24 hours at 37° C.); 100 µg/mL in [4] (Pseudomonas aeruginosa 10124, 10^5CFU/ML each point, 24 hours at 37° C.); 0.78 µg/mL in series [5] (Candida ciferii 41002, 10^5CFU/ML each point, 24 hours at 37° C.); 1.56 µg/mL in [6] (Salmonella enteritidis 50041, 10^5CFU/ML each point, 24 hours at 37° C.). The “MIC of the drug to bacteria” value in series [7] (Bacillus proteus 49085, 10^5CFU/ML each point, 24 hours at 37° C.) stood at 0.195 µg/mL; in series [8] it was 1.56 µg/mL; in series [9] (Diplococcus lanceolatus 31002, 10^5CFU/ML each point, 24 hours at 37° C.), 100 µg/mL; in series [10] (E. coli 44102, 10^5CFU/ML each point, 24 hours at 37° C.), 1.56 µg/mL; in series [11] (Bacillus pneumoniae 46101, 10^5CFU/ML each point, 24 hours at 37° C.) it was 0.78 µg/mL; in series [12] (Shigella flexneri 51573, 10^5CFU/ML each point, 24 hours at 37° C.) it was 0.39 µg/mL. Moreover, the “MIC of the drug to bacteria” value worked out at 100 µg/mL in series [13] (Staphylococcus aureus 26003, 10^5CFU/ML each point, 24 hours at 37° C.); 0.39 µg/mL in series [14] (Shigella bogdii 51313, 10^5CFU/ML each point, 24 hours at 37° C.); 0.78 µg/mL in series [15] (Proteus morganii 49086, 10^5CFU/ML each point, 24 hours at 37° C.). For the same compound, the “MIC (as restated in the conclusions)” value in [15] (Proteus morganii 49086) was 0.78. For the same compound, the “antibacterial activities enhanced versus CTM or CRX used solely” value in [15] (Proteus morganii 49086) was “one hundred times”. Further, the blood drug concentrations entry in [16] (in vivo, 1000 mg/kg) is “stable and persistent”. Further, in [16] (setting [17]), the “antibacterial activities in blood 8 hours after administration” value is “can be detected”. For the same compound, the “half-life period (compared with the intravenous controls)” value in series [16] (mouse, in vivo, 1000 mg/kg) is listed as “longer half-life period”.
The term MIC denotes the least concentration at which growth counts as inhibited. As to `CON=C(C(=O)NC1C(=O)N2C(C(=O)OCOC(=O)C3N4C(=O)CC4S(=O)(=O)C3(C)C)=C(COC(N)=O)CSC12)c1ccco1` (stereo not shown) [YR-2, 5-thia-1-aza-bicyclo [4,2,0] octane-2-ene-2-carboxylic acid, 7-[[(2-furane (methoxy imine)acetyl)amino]-3-[[(aminocarbonyloxy)oxy]methyl]-8-oxo-, [[3,3-dimethyl-4,4-dioxy-7-oxo-4-thia-1-aza-bicyclo[3,2,0]heptane-2-group]carbonyloxy]oxy]methyl ester], the MIC in series [1] (Shigella, 51081, 24 h, read-out: MIC of the drug to bacteria) is 1.56 µg/mL; in series [2] (Proteus mirabilis, 49005, 24 h, read-out: MIC of the drug to bacteria), 3.13 µg/mL; in series [3] (Citrobacter, 48017, 24 h, read-out: MIC of the drug to bacteria) it was 3.13 µg/mL; in [4] (Pseudomonas aeruginosa, 10124, 24 h, read-out: MIC of the drug to bacteria) it was 100 µg/mL; in [5] (Candida, 41002, 24 h, read-out: MIC of the drug to bacteria) it was 50 µg/mL; in series [6] (Salmonella enterica, ENTERITIDIS, 24 h, read-out: MIC of the drug to bacteria), 12.5 µg/mL. For the same compound, the MIC was found to be 0.78 µg/mL in series [7] (Bacillus, 49085, 24 h, read-out: MIC of the drug to bacteria); 6.25 µg/mL in [8] (Salmonella enterica, read-out: MIC of the drug to bacteria); 25 µg/mL in [9] (24 h, read-out: MIC of the drug to bacteria); 12.5 µg/mL in [10] (Escherichia coli, 44102, 24 h, read-out: MIC of the drug to bacteria); 12.5 µg/mL in [11] (Klebsiella pneumoniae, 46101, 24 h, read-out: MIC of the drug to bacteria); 3.13 µg/mL in series [12] (Shigella flexneri, 51573, 24 h, read-out: MIC of the drug to bacteria). Also, the minimal inhibitory concentration (MIC) in series [13] (Staphylococcus aureus, 26003, 24 h, read-out: MIC of the drug to bacteria) turned out to be 6.25 µg/mL; in series [14] (Shigella, 51313, 24 h, read-out: MIC of the drug to bacteria), 1.56 µg/mL; in series [15] (Morganella morganii, 49086, 24 h, read-out: MIC of the drug to bacteria), 25 µg/mL; in series [15] (Morganella morganii, 49086, read-out: MIC (as restated in the conclusions)), 25000 µg/mL (≈ 37.3 mM). Besides, the “antibacterial activities enhanced versus CTM or CRX used solely” value in series [15] (Proteus morganii 49086) is reported as “four times”. The blood drug concentrations result in series [16] (in vivo, 1000 mg/kg) is “stable and persistent”. In addition, the “antibacterial activities in blood 8 hours after administration” value in [16] (setting [17]) was “can be detected”. For the same compound, the “half-life period (compared with the intravenous controls)” value in [16] (setting [17]) is reported as “longer half-life period”.

(Values after US7750148B2, “Intermediate compound for the production of β-lactamase-resistant cephalosporin ester compounds and salts thereof” (Zhejiang Yongning Pharmaceutical Factory, priority 2003, dated 2010).)
